The nature of one data set: Half-life of Compound 1. The settings on record: read-out: t½ (converted).
In the next data set the test system is SKH-1 Elite mice. The data set can be described thus: Oxazolone model of chronic skin inflammation: blood lymphocyte and white blood cell counts. The data set is classed as in vivo, mouse. To be noted: day 29; PO; Compound 1 30 mg/kg b.i.d., Dexamethasone 1.5 mg/kg q.d. The protocol: FIGS. 9A and 9B report the effects on blood lymphocyte (FIG. 9A) and white blood cell (WBC) (FIG. 9B) levels in mice treated as in FIG. 8. Lymphocyte level reduction was severe with dexamethasone treated mice and less so with Compound 1 treatment.
The Oxazolone model of chronic skin inflammation, was tested using Compound 1 and a known anti-inflammatory, dexamethasone. SKH-1 Elite mice were sensitized with 10 µL of a high dose of topical Oxazolone (5% wt/vol in 100% EtOH) on their back and a subsequent chronic inflammation was triggered using low doses of topical Oxazolone (0.1% wt/vol in 100% EtOH) every other day on both flanks. […]
Three hundred (300) µL of whole blood in 10 mM EDTA freshly collected at day 29 of the study and erythrocytes was analyzed for counting of lymphocytes (FIG. 9A) and white blood cells (WBC) (FIG. 9B) using an Advia - 120 hematology analyzer. Lymphocyte and white blood cell (WBC) populations were quantified for each treatment group (n=3, 6, 8, 8, 8, 6, respectively). All data are mean ± s.e.m. and statistical significance was assessed using one-way ANOVA followed by Tukey’s multiple comparisons test with the following adjusted p-value thresholds: <0.05 (*), < 0.01 (**), < 0.001 (***) and <0.0001 (****).

Consider `Cc1cc(C(=O)N(C)C)cc(NC(=O)[C@H]2CCC(=O)N2C2CCN(Cc3ccc(Cl)c(C)c3)CC2)n1` [Compound 1], for which, in the data set “Half-life of Compound 1”, the half-life was 18 h.

Turning to `C[C@@H]1C[C@H]2[C@@H]3CCC4=CC(=O)C=C[C@]4(C)[C@@]3(F)[C@@H](O)C[C@]2(C)[C@@]1(O)C(=O)CO` [Dexamethasone], the “blood lymphocyte level reduction” value in the data set with SKH-1 Elite mice is “severe”.

The record behind these values is patent publication US20230346764A1, “Methods and Compositions for Treating Pruritus, Xerosis, and Associated Disease Using CCR3-Inhibitors” (Alkahest, Inc., priority 2017, published 2023).
